Measured values published in EP0284935A1, “5-Substituted quinolone- and naphthyridone carboxylic acid derivatives” (BAYER AG, priority 1987, dated 1988).
Values after ≈ are worked out from the molar mass of the structure shown. Where a name gives a salt, the structure may show the parent alone.

Assays:
Assay in all cases: Agar dilution test, minimum inhibitory concentration
Type in all cases: cell-based
[1] = test system: Providencia 12012; details: test strain Providencia 12012; Isosensitest-Agar (Oxoid), inoculum ca. 10^4 germs per inoculation point; read-out: Minimale Hemmkonzentrationen
[2] = test system: Serratia 16040; details: test strain Serratia 16040; Isosensitest-Agar (Oxoid), inoculum ca. 10^4 germs per inoculation point; read-out: Minimale Hemmkonzentrationen
[3] = test system: E.coli 455/7; details: Escherichia coli; test strain E.coli 455/7; Isosensitest-Agar (Oxoid), inoculum ca. 10^4 germs per inoculation point; read-out: Minimale Hemmkonzentrationen
[4] = test system: Proteus mir. 8223; details: test strain Proteus mir. 8223; Isosensitest-Agar (Oxoid), inoculum ca. 10^4 germs per inoculation point; read-out: Minimale Hemmkonzentrationen
[5] = test system: Klebsiella 63; details: test strain Klebsiella 63; Isosensitest-Agar (Oxoid), inoculum ca. 10^4 germs per inoculation point; read-out: Minimale Hemmkonzentrationen
[6] = test system: Pseudomonas Ellsworth; details: test strain Pseudomonas Ellsworth; Isosensitest-Agar (Oxoid), inoculum ca. 10^4 germs per inoculation point; read-out: Minimale Hemmkonzentrationen
[7] = test system: Pseudomonas Walter; details: test strain Pseudomonas Walter; Isosensitest-Agar (Oxoid), inoculum ca. 10^4 germs per inoculation point; read-out: Minimale Hemmkonzentrationen
[8] = test system: Providencia 12052; details: test strain Providencia 12052; Isosensitest-Agar (Oxoid), inoculum ca. 10^4 germs per inoculation point; read-out: Minimale Hemmkonzentrationen
[9] = test system: Morg. morg. 11006; details: test strain Morg. morg. 11006; Isosensitest-Agar (Oxoid), inoculum ca. 10^4 germs per inoculation point; read-out: Minimale Hemmkonzentrationen
[10] = test system: Klebsiella 8085; details: test strain Klebsiella 8085; Isosensitest-Agar (Oxoid), inoculum ca. 10^4 germs per inoculation point; read-out: Minimale Hemmkonzentrationen
[11] = test system: Proteus vulg. 1017; details: test strain Proteus vulg. 1017; Isosensitest-Agar (Oxoid), inoculum ca. 10^4 germs per inoculation point; read-out: Minimale Hemmkonzentrationen
[12] = test system: E.coli Neumann; details: Escherichia coli; test strain E.coli Neumann; Isosensitest-Agar (Oxoid), inoculum ca. 10^4 germs per inoculation point; read-out: Minimale Hemmkonzentrationen
[13] = test system: Enteroc. 9790; details: test strain Enteroc. 9790; Isosensitest-Agar (Oxoid), inoculum ca. 10^4 germs per inoculation point; read-out: Minimale Hemmkonzentrationen
[14] = test system: Staph. 1756; details: test strain Staph. 1756; Isosensitest-Agar (Oxoid), inoculum ca. 10^4 germs per inoculation point; read-out: Minimale Hemmkonzentrationen
[15] = test system: Staph. 133; details: test strain Staph. 133; Isosensitest-Agar (Oxoid), inoculum ca. 10^4 germs per inoculation point; read-out: Minimale Hemmkonzentrationen
[16] = test system: Staph. FK 422; details: test strain Staph. FK 422; Isosensitest-Agar (Oxoid), inoculum ca. 10^4 germs per inoculation point; read-out: Minimale Hemmkonzentrationen
[17] = test system: Morg. morg. 932; details: test strain Morg. morg. 932; Isosensitest-Agar (Oxoid), inoculum ca. 10^4 germs per inoculation point; read-out: Minimale Hemmkonzentrationen
[18] = test system: Enteroc. 27101; details: test strain Enteroc. 27101; Isosensitest-Agar (Oxoid), inoculum ca. 10^4 germs per inoculation point; read-out: Minimale Hemmkonzentrationen
[19] = test system: E.coli A261; details: Escherichia coli; test strain E.coli A261; Isosensitest-Agar (Oxoid), inoculum ca. 10^4 germs per inoculation point; read-out: Minimale Hemmkonzentrationen
[20] = test system: Proteus mir. 8175; details: test strain Proteus mir. 8175; Isosensitest-Agar (Oxoid), inoculum ca. 10^4 germs per inoculation point; read-out: Minimale Hemmkonzentrationen

Row | MIC [1] [µg/mL] | MIC [2] [µg/mL] | MIC [3] [µg/mL] | MIC [4] [µg/mL] | MIC [5] [µg/mL] | MIC [6] [µg/mL] | MIC [7] [µg/mL] | MIC [8] [µg/mL] | MIC [9] [µg/mL] | MIC [10] [µg/mL] | MIC [11] [µg/mL] | MIC [12] [µg/mL] | MIC [13] [µg/mL] | MIC [14] [µg/mL] | MIC [15] [µg/mL] | MIC [16] [µg/mL] | MIC [17] [µg/mL] | MIC [18] [µg/mL] | MIC [19] [µg/mL] | MIC [20] [µg/mL] | Structure (SMILES)
1 | 0.06 (≈ 0.154 µM) | 4 (≈ 10.2 µM) | 1 (≈ 2.56 µM) | 1 (≈ 2.56 µM) | 0.03 (≈ 0.0768 µM) | 0.03 (≈ 0.0768 µM) | 0.5 (≈ 1.28 µM) | 4 (≈ 10.2 µM) | 0.03 (≈ 0.0768 µM) | 0.06 (≈ 0.154 µM) | – | – | – | – | – | – | – | – | – | – | Nc1c(F)c(N2CCN3CCC2C3)c(F)c2c1c(=O)c(C(=O)O)cn2C1CC1 (stereo not shown) [Beispiel 25, 5-Amino-1-cyclopropyl-7-(1,4-diazabicyclo[3.2.1]oct-4-yl)-6,8-difluor-1,4-dihydro-4-oxo-3-chinolincarbonsäure]
2 | 0.06 (≈ 0.164 µM) | 8 (≈ 21.9 µM) | 16 (≈ 43.8 µM) | 0.5 (≈ 1.37 µM) | 0.06 (≈ 0.164 µM) | 0.03 (≈ 0.0821 µM) | 2 (≈ 5.47 µM) | 8 (≈ 21.9 µM) | – | 0.06 (≈ 0.164 µM) | 0.03 (≈ 0.0821 µM) | 0.03 (≈ 0.0821 µM) | 0.25 (≈ 0.684 µM) | 0.03 (≈ 0.0821 µM) | 0.03 (≈ 0.0821 µM) | 0.03 (≈ 0.0821 µM) | 0.03 (≈ 0.0821 µM) | 0.25 (≈ 0.684 µM) | 4 (≈ 10.9 µM) | – | Nc1c(F)c(N2CCOCC2)c(F)c2c1c(=O)c(C(=O)O)cn2C1CC1 [Beispiel 26, 5-Amino-1-cyclopropyl-6,8-difluor-1,4-dihydro-7-morpholino-4-oxo-3-chinolincarbonsäure]
3 | 0.06 (≈ 0.172 µM) | 16 (≈ 45.8 µM) | 16 (≈ 45.8 µM) | 0.25 (≈ 0.716 µM) | – | – | 1 (≈ 2.86 µM) | 8 (≈ 22.9 µM) | – | – | 0.06 (≈ 0.172 µM) | – | – | – | – | – | 0.06 (≈ 0.172 µM) | 0.03 (≈ 0.0859 µM) | 2 (≈ 5.73 µM) | 0.25 (≈ 0.716 µM) | Nc1c(F)c(N2CCCC2)c(F)c2c1c(=O)c(C(=O)O)cn2C1CC1 [Beispiel 27, 5-Amino-1-cyclopropyl-6,8-difluor-1,4-dihydro-4-oxo-7-(1-pyrrolidinyl)-3-chinolincarbonsäure]
4 | – | 1 (≈ 2.74 µM) | 2 (≈ 5.47 µM) | 0.06 (≈ 0.164 µM) | – | 0.03 (≈ 0.0821 µM) | 0.25 (≈ 0.684 µM) | 1 (≈ 2.74 µM) | – | – | – | – | 0.03 (≈ 0.0821 µM) | – | – | – | – | 0.03 (≈ 0.0821 µM) | 0.25 (≈ 0.684 µM) | – | Nc1c(F)c(N2CCC(O)C2)c(F)c2c1c(=O)c(C(=O)O)cn2C1CC1 (stereo not shown) [Beispiel 28, 5-Amino-1-cyclopropyl-6,8-difluor-1,4-dihydro-7-(3-hydroxy-1-pyrrolidinyl)-4-oxo-3-chinolincarbonsäure]
5 | – | 8 (≈ 23.1 µM) | 16 (≈ 46.2 µM) | 2 (≈ 5.78 µM) | 0.06 (≈ 0.173 µM) | 0.25 (≈ 0.722 µM) | 2 (≈ 5.78 µM) | 4 (≈ 11.6 µM) | 0.06 (≈ 0.173 µM) | 0.03 (≈ 0.0866 µM) | – | 0.03 (≈ 0.0866 µM) | 0.25 (≈ 0.722 µM) | – | 0.03 (≈ 0.0866 µM) | – | – | 0.25 (≈ 0.722 µM) | 2 (≈ 5.78 µM) | 0.06 (≈ 0.173 µM) | Nc1c(F)c(-n2ccnc2)c(F)c2c1c(=O)c(C(=O)O)cn2C1CC1 [Beispiel 30, 5-Amino-1-cyclopropyl-6,8-difluor-1,4-dihydro-7-(1-imidazolyl)-4-oxo-3-chinolincarbonsäure-methansulfonat]
6 | 0.03 | 4 | 1 | 0.5 | – | 0.03 | 1 | 1 | 0.03 | 0.03 | – | – | 0.03 | 0.03 | 0.03 | 0.03 | – | 0.03 | 0.06 | 0.06 | CCNCC1CCN(c2c(F)c(N)c3c(=O)c(C(=O)O)cn(C4CC4)c3c2F)C1 (stereo not shown) [Beispiel 32, 5-Amino-1-cyclopropyl-7-(3-ethylaminomethyl-1-pyrrolidinyl)-6.8-difluor-1,4-dihydro-4-oxo-3-chinolincarbonsäure-hydrochlorid-hydrat]
